Here are results for 9 compounds from US8097626B2, “IL-8 receptor antagonists” (GlaxoSmithKline LLC, priority 2006, dated 2012).

The subject of the assay is GROα-induced expression of the integrin CD11b on neutrophils in human whole blood. Kind of assay: CD11b human whole blood assay. It is filed as cell-based. Particulars: Neutrophil, 10 nM GROα. How it is done: The compounds indicated were tested for their ability to inhibit the GROα-induced expression of the integrin CD11b on neutrophils in human whole blood.
Blood was drawn (9 ml) using a butterfly line and a 10 ml syringe containing 0.2 ml of working Sodium Heparin. The blood was kept at 37° C. until placed on ice in step 5 below. Compound stock solutions were then diluted to 12 times the maximum final concentration, 120 uM. Half Log serial dilutions were then performed in vehicle. Ten microliters of the compound dilutions or vehicle were then added to the appropriate 12×75 polypropylene tubes. One hundred microliters of whole blood was added per tube and incubated for 10 minutes, in a 37° C. water bath with initial (gentle) agitation and again at 5 minutes. The GROα stock was diluted 1:166.66 in 0.1% BSA-DPBS to “12×” concentration of 120 nM and 10 ul of the GROα dilution or 01% BSA-DPBS was added to the appropriate tubes so that the final GROα concentration equaled 10 nM. The tubes were incubated for 10 min at 37° C. with gentle hand agitation and again at 5 minutes. Samples were then placed on ice and 250 ul of ice cold CellFix working dilution was added followed by a one minute incubation on ice. 1.5 ml Eppendorf tubes were readied during GROα incubation by adding the appropriate antibodies. Every tube received 10 ul of CD11b-FITC and 5 ul of CD16-PE, except for the isotype control which received 10 ul of IgG2a-FITC instead of CD11b. Addition of 50 ul of the fixed blood from each tube was added to the appropriate Eppendorf tube. Samples were allowed to then incubate for 20 min at 4° C. in the dark. Addition of the blood/antibody mixtures to 500 ul of cold DPBS were added to the appropriately labeled 12×75 polystyrene tube. The resulting mixture was kept on ice. LDS stock (10 ul) was added and the mixture was incubated for 10 min at 4° C. before flow analysis. Samples were kept in a darkened environment. The LDS addition was staggered as the samples were collected on the flow cytometer so that all samples were run ˜10-20 minutes post-LDS addition.
Medium flow rate was used for flow collection and FL3 threshold increased to eliminate red blood cells from analysis using the LDS signal. The color compensation was properly set using unlabeled samples and one-color samples to subtract LDS spill into PE and the PE spill into FITC and FITC into PE. For the BD LSR cytometer, LDS=FL3, PE=FL2, FITC=FL1. A minimum of 2000-3000 events that satisfy the granulocyte gate by SSC vs. FSC and were CD16 positive by the FL2 signal were collected.

Setting [1] is: activity threshold, read-out: IC50, inhibition of GROα-induced CD11b expression on neutrophils.
The mark [2] stands for this setting: from about 3 uM to about 0.7 uM, read-out: IC50, inhibition of GROα-induced CD11b expression on neutrophils (span of the tested compounds).

Where two headings read alike, the source gives them in different places.

`O=C(Nc1ccc(Cl)c(S(=O)(=O)N2CC3CC2CN3)c1O)Nc1cccc(F)c1Cl` (racemic) [Example 23, (+/−)-N-[4-chloro-3-(2,5-diazabicyclo[2.2.1]hept-2-ylsulfonyl)-2-hydroxyphenyl]-N′-(2-chloro-3-fluorophenyl)urea]: the IC50 under setting [1] was below 5000 nM and the IC50 under setting [2] lay within 700 to 3000 nM.

Regarding `CCc1ccccc1NC(=O)Nc1ccc(Cl)c(S(=O)(=O)N2C[C@H]3C[C@@H]2CN3)c1O` (stereo in doubt) [Example 12, N-{4-chloro-3-[(1R,4R)-2,5-diazabicyclo[2.2.1]hept-2-ylsulfonyl]-2-hydroxyphenyl}-N′-(2-ethylphenyl)urea], the IC50 by setting is: under setting [1], below 5000 nM; under setting [2], 700 to 3000 nM.

Regarding `O=C(Nc1ccc(Cl)c(S(=O)(=O)N2C3CC[C@H]2CNC3)c1O)Nc1cccc(F)c1Cl` (stereo in doubt) [Example 45, N-{4-chloro-3-[(1S,5S)-3,8-diazabicyclo[3.2.1]oct-8-ylsulfonyl]-2-hydroxyphenyl}-N′-(2-chloro-3-fluorophenyl)urea], the half-maximal inhibitory concentration (IC50) was below 5000 nM under setting [1] and 700 to 3000 nM under setting [2].

As to `O=C(Nc1ccc(Cl)c(S(=O)(=O)N2C[C@@H]3C[C@H]2CN3)c1O)Nc1cccc(F)c1Cl` [Example 1, N-[4-chloro-3-[(1S,4S)-2,5-diazabicyclo[2.2.1]hept-2-ylsulfonyl]-2-hydroxyphenyl]-N′-(2-chloro-3-fluorophenyl)urea], the concentration for half-maximal inhibition (IC50) under setting [1] was below 5000 nM and the half-inhibitory concentration (IC50) under setting [2] was in the range of 700 to 3000 nM.

Regarding `O=C(Nc1ccc(Cl)c(S(=O)(=O)N2C[C@@H]3C[C@H]2CN3CC2CC2)c1O)Nc1cccc(F)c1Cl` [Example 2, N-(4-chloro-3-{[(1S,4S)-5-(cyclopropylmethyl)-2,5-diazabicyclo[2.2.1]hept-2-yl]sulfonyl}-2-hydroxyphenyl)-N′-(2-chloro-3-fluorophenyl)urea], the 50% inhibitory concentration (IC50) is below 5000 nM under setting [1] and 700 to 3000 nM under setting [2].

`O=C(Nc1cccnc1Cl)Nc1ccc(Cl)c(S(=O)(=O)N2CCn3ccnc3C2)c1O` [Example 3, N-[4-chloro-3-(5,6-dihydroimidazo[1,2-a]pyrazin-7(8H)-ylsulfonyl)-2-hydroxyphenyl]-N′-(2-chloro-3-pyridinyl)urea]: the IC50 runs as follows: under setting [1], below 5000 nM; under setting [2], 700 to 3000 nM.

Consider `Cc1c(F)cccc1NC(=O)Nc1ccc(Cl)c(S(=O)(=O)N2C[C@H]3CC[C@@H](C2)N3)c1O` [Example 17, N-[4-chloro-3-(3,8-diazabicyclo[3.2.1]oct-3-ylsulfonyl)-2-hydroxyphenyl]-N′-(3-fluoro-2-methylphenyl)urea], for which the 50% inhibitory concentration (IC50) under setting [1] was below 5000 nM and the half-inhibitory concentration (IC50) under setting [2] lay in the range of 700 to 3000 nM.

As for `O=C(Nc1ccccc1Oc1ccccc1)Nc1ccc(Cl)c(S(=O)(=O)N2C[C@H]3CC[C@@H](C2)N3)c1O` [Example 18, N-[4-chloro-3-(3,8-diazabicyclo[3.2.1]oct-3-ylsulfonyl)-2-hydroxyphenyl]-N′-[2-(phenyloxy)phenyl]urea], the IC50 under setting [1] was below 5000 nM and the IC50 under setting [2] lay in the range of 700 to 3000 nM.

As to `O=C1C[C@H]2CC[C@@H](C1)N2S(=O)(=O)c1c(Cl)ccc(NC(=O)Nc2cccc3c2OC(F)(F)O3)c1O` [Example 26, N-(4-chloro-2-hydroxy-3-{[(1R,5S)-3-oxo-8-azabicyclo[3.2.1]oct-8-yl]sulfonyl}phenyl)-N′-(2,2-difluoro-1,3-benzodioxol-4-yl)urea], the 50% inhibitory concentration (IC50) is below 5000 nM under setting [1] and 700 to 3000 nM under setting [2].
